In patent publication US10463593B2, “Lupin peptide extracts and skin firmness” (LABORATOIRES EXPANSCIENCE, priority 2014, dated 2019):

Legend:
[1] = tested on: proteins of the extracellular matrix (chiefly collagens); experiment: Non-enzymatic glycation: incorporation of [3H]-glucose in extracellular matrix proteins deposited by dermal fibroblasts; format: biochemical, human; details: 1 mg/ml
Experimental: The non-enzymatic insertion of AGEs in synthesised collagen fibres deposited by human dermal fibroblasts cultured in vitro was examined. A radioactive detection method was used that was based on the incorporation of tritiated glucose in the proteins of the extracellular matrix.
Normal human dermal fibroblasts were cultured in the presence of vitamin C to stimulate the synthesis of collagen. The cells then underwent different operations (freezing/thawing/heating) to inactivate all enzymatic activity.
The matrix layers thus obtained were treated in the presence of the above-described lupin peptide extract at 0.2 and 2%, aminoguanidine HCl at 1 mg/ml (control), 0.2% glucose and [^3H]-glucose radioactive marker for 15 days at 37° C., in the absence of oxygen (rapid re-oxygenation was performed after 7 treatment days).
After incubation, the proteins of the extracellular matrix (chiefly collagens) were extracted using a chaotropic buffer, precipitated with trichloroacetic acid and collected on filters. The radioactivity incorporated in the ECM fibres was measured by liquid scintillation.
The results were analysed statistically using one-factor analysis of variance followed by a Dunnett test, and are given in the Table below: […]

[2] = tested on: “aged” dermal equivalents seeded with senescent fibroblasts; experiment: Contraction of “aged” dermal equivalents (surface area); format: cell-based; details: 10 ng/ml; for % “aged” control: area relative to “aged” control; for Area in mm^2 (mean ± SEM): “aged” DEs
Experimental: A model of dermal equivalents containing fibroblasts allows evaluation of the quality of interactions between fibroblasts and collagen fibres. The free contraction/retraction of these dermal equivalents results from the dynamic activity of the cells which apply tensile forces on the collagen network.
The effect of lupin peptide extract on the contraction of dermal equivalents was evaluated. To induce a condition of fibroblast loss of contractile forces, the dermal equivalents were seeded with senescent so-called “aged” fibroblasts (obtained by successive passaging in accordance with the Hayflick model).
“Aged” or normal dermal equivalents were prepared by mixing the fibroblasts (at passage 8 for normal dermal equivalents or at passage 17 for “aged” dermal equivalents) with a collagen solution.
After full gelling, the dermal equivalents were treated with TGFβ at 10 ng/ml (control) or 0.1% lupin peptide extract and incubated for 4 days.
The dermal equivalents were photographed at D1, D3 and D4 to measure their surface area for determination of contraction.

Molecule | Incorporation [^3H]-glucose (cpm) ([1]; 15 days at 37° C., control 5527 ± 464) | Inhibition of glycation ([1]; versus control, p < 0.001) [% p < 0.001] | Contraction of “aged” DEs (in words) ([2]; significant after a treatment time of 4 days) | % “aged” control ([2]; D1) [%] | Area in mm^2 (mean ± SEM) ([2]; D1) [mm^2] | % “aged” control ([2]; D3) [%] | Area in mm^2 (mean ± SEM) ([2]; D3) [mm^2] | % “aged” control ([2]; D4, p < 0.05) | Area in mm^2 (mean ± SEM) ([2]; D4) [mm^2]
Cl.N=C(N)NN [Aminoguanidine, aminoguanidine HCl] | 1219 ± 92 | −78 | – | – | – | – | – | – | –
TGFβ | – | – | stimulates the contraction of “aged” DEs | 94 | 264.6 ± 5.5 | 95 | 285.9 ± 6.7 | 85 (p < 0.05) % | 201.3 ± 8.4
